Here are results for six compounds from patent US20090281054A1, “COMPOSITIONS AND METHODS COMPRISING CAPURAMYCIN ANALOGUES” (priority 2008, published 2009).

The term pIC50 denotes −log10 of the IC50, conventionally taken in molar units. Lower therefore signals a large IC50. As a reminder, the MIC is the lowest concentration that inhibits growth of the organism. Usually MIC90 stands for the lowest concentration that inhibits either 90% of growth or 90% of the strains tested, depending on the study.

In one assay the target is translocase I (Escherichia coli, UniProt P0A6W3). In words: IC50 against translocase I. The format is biochemical.
Sequence of translocase I (P0A6W3 whole entry): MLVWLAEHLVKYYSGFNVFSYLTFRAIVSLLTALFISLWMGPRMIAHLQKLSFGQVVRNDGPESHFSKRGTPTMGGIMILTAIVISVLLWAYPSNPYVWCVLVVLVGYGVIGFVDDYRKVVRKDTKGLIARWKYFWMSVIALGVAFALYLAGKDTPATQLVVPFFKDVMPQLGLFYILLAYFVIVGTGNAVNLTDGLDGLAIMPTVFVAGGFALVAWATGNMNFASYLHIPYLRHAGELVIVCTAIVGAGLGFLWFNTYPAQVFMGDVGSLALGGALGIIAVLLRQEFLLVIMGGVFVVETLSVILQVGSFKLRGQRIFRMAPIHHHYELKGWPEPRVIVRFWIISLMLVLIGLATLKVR
The subject of assay [1] is M. smegmatis (MSMG; MC2155). Put plainly: MIC by microdilution method in 7H9 broth. The assay is classed as cell-based. Particulars: Mycolicibacterium smegmatis, MC2155|MC^2155; MSMG MC^2155; 72 hr; read-out: MIC.
In assay [2] the test system is M. abscessus (MAB; ATCC 700869). Put plainly: MIC by microdilution method in 7H9 broth. The format is cell-based. As to conditions: Mycobacteroides abscessus, ATCC700869; MAB 700869; read-out: MIC. Background: In broth dilution the organism is exposed to a series of concentrations in liquid medium.
Assay [3] has as its system M. kansaii (MKN; ATCC12478 & 35775). Put plainly: MIC by microdilution method in 7H9 broth. The format is cell-based, M. kansasii. As to conditions: Mycobacterium kansasii.
The next assay relates to M. avium complex (MAC). In words: MIC by microdilution method in 7H9 broth. The assay is classed as cell-based. Particulars: Mycobacterium avium; for MIC90: value in square brackets, read-out: MIC90.
The next assay deals with M. smegmatis. Put plainly: Synergy by checkerboard titration (microdilution). The assay is classed as cell-based. As to conditions: M. smegmatis; for MIC: Mycolicibacterium smegmatis, drug alone.
Assay [4] has as its system intracellular MTB (MTBp-SMT1) in J774A.1 macrophages. Put plainly: Intracellular activity of SQ641-TPGS micelles. The format is cell-based, Mycobacterium tuberculosis.
Another assay concerns M. abscessus. In words: Synergy by checkerboard titration (microdilution). The assay is classed as cell-based.
Assay [5] has as its system MTB-pSMT1 luciferase reporter strain. In words: Activity against slowly replicating (hypoxic) MTB. The assay is classed as cell-based. Particulars: Mycobacterium tuberculosis.
A further assay relates to MTB in J774 cells. Put plainly: Intracellular activity of amino acid conjugates. The assay is classed as cell-based, Mycobacterium tuberculosis. As to conditions: day 0 RLU 775, Control day 7 31700. How it is done: The amino acid conjugates were tested at concentrations of 4 mg/mL and 8 mg/mL compared with a control and isoniazid (INH).
The intracellular activity against MTB by capuramycin amino acid derivatives was tested. Cells J774 were infected with MTB and treated for 7 days with the amino acid derivative. The mean Relative Light Unites (RLU), an estimation of bacterial viability, was measured as described in Snewin et al., Infect. Immun., 1999, 67(9), 4586-4593).

Where [6] appears, read: ATCC 12478 / ATCC 35775, MKN ATCC35775, read-out: MIC.
The mark [7] stands for this setting: 336 h, MAC isolates, 2 wk, read-out: MIC (range).
[8] abbreviates: MAC strain NIH C1-1, read-out: MIC.
Where [9] appears, read: MAC strain NIH C1-2, read-out: MIC.
[10] abbreviates: MAC strain NIH C1-3, read-out: MIC.
Setting [11] is: MAC strain NIH C1-4, read-out: MIC.

pIC50: −log10 of the molar value. Converted amounts (≈) assume the structure as drawn. Where two headings read alike, the source gives them in different places. A value given as a limit tells only on which side of the number the result lay.

As for `CO[C@H]1[C@@H](O)[C@H](n2ccc(=O)[nH]c2=O)O[C@@H]1[C@@H](O[C@H]1OC(C(=O)Nc2ccc(OC(F)(F)F)cc2)=C[C@H](O)[C@@H]1O)C(N)=O` [RKS2241], the pIC50 on translocase I is 7.62. Besides, the MIC in [1] was 4 µg/mL (≈ 6.47 µM); in assay [2], 2 µg/mL (≈ 3.23 µM); in [3] (setting [6]), 2 µg/mL (≈ 3.23 µM); in assay [3] (MKN ATCC12478, read-out: MIC) it was 32 µg/mL (≈ 51.7 µM); with M. avium complex (MAC) (setting [7]), 0.5 to 16 µg/mL (≈ 0.808 to 25.9 µM); in the assay on M. avium complex (MAC) (MAC strain 100, read-out: MIC) it was 2 µg/mL (≈ 3.23 µM). The MIC was determined as 1 µg/mL (≈ 1.62 µM) in the assay with M. avium complex (MAC) (MAC strain 101, read-out: MIC); 0.5 µg/mL (≈ 0.808 µM) with M. avium complex (MAC) (MAC strain 104, read-out: MIC); 0.5 µg/mL (≈ 0.808 µM) in the assay on M. avium complex (MAC) (MAC strain 109, read-out: MIC); 1 µg/mL (≈ 1.62 µM) in the assay on M. avium complex (MAC) (MAC strain A5, read-out: MIC); 2 µg/mL (≈ 3.23 µM) in the assay on M. avium complex (MAC) (MAC strain JSH1, read-out: MIC); 8 µg/mL (≈ 12.9 µM) in the assay with M. avium complex (MAC) (setting [8]). Further, the values for the minimal inhibitory concentration (MIC) with M. avium complex (MAC) (setting [9]), in the assay with M. avium complex (MAC) (setting [10]) and in the assay on M. avium complex (MAC) (setting [11]) were 1 µg/mL (≈ 1.62 µM), 16 µg/mL (≈ 25.9 µM) and 2 µg/mL (≈ 3.23 µM), respectively. Further, in the assay with M. avium complex (MAC) (MAC isolates), the MIC90 was 8 µg/mL (≈ 12.9 µM).

Consider `CO[C@H]1/C=C/O[C@@]2(C)Oc3c(C)c(O)c4c(O)c(c(/C=N/N5CCN(C)CC5)c(O)c4c3C2=O)NC(=O)/C(C)=C\C=C\[C@H](C)[C@H](O)[C@@H](C)[C@@H](O)[C@@H](C)[C@H](OC(C)=O)[C@@H]1C` [RIF, rifampicin, reference compound], for which the MIC in assay [1] is 8 µg/mL (≈ 9.72 µM); in assay [2] it was greater than 32 µg/mL; in assay [3] (ATCC12478) it was 0.125 µg/mL (≈ 0.152 µM); in [3] (ATCC 12478 / ATCC 35775), 0.125 µg/mL (≈ 0.152 µM); in the assay with M. avium complex (MAC) (setting [7]), 0.062 to 4 µg/mL (≈ 0.0753 to 4.86 µM); with M. smegmatis, 8 µg/mL. For the same compound, the MIC90 with M. avium complex (MAC) (MAC isolates) was determined as 1 µg/mL (≈ 1.22 µM). Further, in the assay with M. smegmatis (combination SQ641 + RIF), the “MIC Combination” value is 2.0 µg/mL. Further, in assay [4], the “Mean RLU at Day 7” value was 22 RLU.

As for `CO[C@H]1[C@@H](O)[C@H](n2ccc(=O)[nH]c2=O)O[C@@H]1[C@@H](O[C@H]1OC(C(=O)Nc2ccc(C(F)(F)F)cc2)=C[C@H](O)[C@@H]1O)C(N)=O` [RKS2033], the “IC50 against translocase I” value against translocase I worked out at 0.03 µg/mL (≈ 0.0498 µM). Further, the MIC in assay [1] is 4 µg/mL (≈ 6.64 µM); in [2], 2 µg/mL (≈ 3.32 µM); in [3] (setting [6]), 2 µg/mL (≈ 3.32 µM); in assay [3] (MKN ATCC12478, read-out: MIC), 16 µg/mL (≈ 26.6 µM); in the assay on M. avium complex (MAC) (setting [7]), 1 to 8 µg/mL (≈ 1.66 to 13.3 µM); with M. avium complex (MAC) (MAC strain 100, read-out: MIC), 2 µg/mL (≈ 3.32 µM). Besides, the MIC came to 2 µg/mL (≈ 3.32 µM) in the assay with M. avium complex (MAC) (MAC strain 101, read-out: MIC); 1 µg/mL (≈ 1.66 µM) with M. avium complex (MAC) (MAC strain 104, read-out: MIC); 1 µg/mL (≈ 1.66 µM) with M. avium complex (MAC) (MAC strain 109, read-out: MIC); 2 µg/mL (≈ 3.32 µM) in the assay on M. avium complex (MAC) (MAC strain A5, read-out: MIC); 2 µg/mL (≈ 3.32 µM) in the assay with M. avium complex (MAC) (MAC strain JSH1, read-out: MIC); 4 µg/mL (≈ 6.64 µM) with M. avium complex (MAC) (setting [8]). In addition, the minimum inhibitory concentration (MIC) was 2 µg/mL (≈ 3.32 µM) with M. avium complex (MAC) (setting [9]), 8 µg/mL (≈ 13.3 µM) in the assay with M. avium complex (MAC) (setting [10]) and 2 µg/mL (≈ 3.32 µM) in the assay on M. avium complex (MAC) (setting [11]). In addition, in the assay on M. avium complex (MAC) (MAC isolates), the MIC90 was 4 µg/mL (≈ 6.64 µM).

With `[H]/N=C(/N)N[C@H]1[C@H](O)[C@@H](O)[C@H](O[C@@H]2O[C@@H](C)[C@](O)(C=O)[C@H]2O[C@@H]2O[C@@H](CO)[C@H](O)[C@@H](O)[C@@H]2NC)[C@@H](N/C(N)=N\[H])[C@@H]1O` [SM, streptomycin, reference compound], the MIC in [1] is 0.5 µg/mL (≈ 0.86 µM); in assay [2], 8 µg/mL (≈ 13.8 µM); in assay [3] (setting [6]) it was 2 µg/mL (≈ 3.44 µM); in [3] (MKN ATCC12478, read-out: MIC), greater than 32 µg/mL; with M. abscessus (Mycobacteroides abscessus, drug alone), 8 µg/mL; in the assay with M. smegmatis, 0.5 µg/mL. Besides, the MIC in [5] was 0.25 µg/mL (≈ 0.43 µM); in assay [5] (Hypoxic, […]), 1 µg/mL (≈ 1.72 µM). The “MIC Combination” value in the assay with M. abscessus (combination SQ641 + SM) came to 2.0 µg/mL; in the assay with M. smegmatis (combination SQ641 + SM) it was 0.25 µg/mL.

With `CCCCCCCCCC(=O)O[C@@H]1[C@H](OC)[C@@H]([C@@H](OC2OC(C(=O)N[C@H]3CCC[C@@H](C)NC3=O)=C[C@H](OC(=O)CCOCCOCCOCCOCCN)[C@@H]2OC(=O)CCOCCOCCOCCOCCN)C(N)=O)O[C@H]1n1ccc(=O)[nH]c1=O` (stereo partly drawn) [SQ641-2topdec], the “Mean RLU on day 7” value was 4354 RLU with MTB in J774 cells (4 μg/ml) and 2903 RLU with MTB in J774 cells (8 μg/ml).

`CO[C@H]1[C@@H](O)[C@H](n2ccc(=O)[nH]c2=O)O[C@@H]1[C@@H](O[C@H]1OC(C(=O)Nc2ccc([N+](=O)[O-])cc2)=C[C@H](O)[C@@H]1O)C(N)=O` [RKS2243] showed a pIC50 at translocase I of 8.16. The minimum inhibitory concentration (MIC) in [1] was 4 µg/mL (≈ 6.9 µM); in [2], greater than 32 µg/mL; in [3] (setting [6]), 2 µg/mL (≈ 3.45 µM); in assay [3] (MKN ATCC12478, read-out: MIC), 32 µg/mL (≈ 55.2 µM); in the assay on M. avium complex (MAC) (setting [7]), 0.5 to 8 µg/mL (≈ 0.863 to 13.8 µM); with M. avium complex (MAC) (MAC strain 100, read-out: MIC), 1 µg/mL (≈ 1.73 µM). For the same compound, the MIC in the assay on M. avium complex (MAC) (MAC strain 101, read-out: MIC) amounted to 1 µg/mL (≈ 1.73 µM); in the assay with M. avium complex (MAC) (MAC strain 104, read-out: MIC) it was 1 µg/mL (≈ 1.73 µM); in the assay on M. avium complex (MAC) (MAC strain 109, read-out: MIC) it was 0.5 µg/mL (≈ 0.863 µM); in the assay with M. avium complex (MAC) (MAC strain A5, read-out: MIC), 0.5 µg/mL (≈ 0.863 µM); in the assay with M. avium complex (MAC) (MAC strain JSH1, read-out: MIC), 1 µg/mL (≈ 1.73 µM); in the assay with M. avium complex (MAC) (setting [8]), 4 µg/mL (≈ 6.9 µM). For the same compound, the results for the MIC with M. avium complex (MAC) (setting [9]), with M. avium complex (MAC) (setting [10]) and in the assay with M. avium complex (MAC) (setting [11]) were 1 µg/mL (≈ 1.73 µM), 8 µg/mL (≈ 13.8 µM) and 1 µg/mL (≈ 1.73 µM), respectively. The MIC90 in the assay with M. avium complex (MAC) (MAC isolates) came out at 4 µg/mL (≈ 6.9 µM).
